Reference: patent publication US20090118332A1, “Therapeutic Agents - 551” (AstraZeneca AB, priority 2006, published 2009)

Molecular target: T1, human Fatty Acid Synthase (Homo sapiens, UniProt P49327)
T1 construct: made in house
Assay: Human FAS enzyme assay (decrease in NADPH fluorescence)
Assay type: biochemical
Settings: % inhibition at a concentration of 100 μmolar
How it was run: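 In-house human FAS was preincubated with compound and NADPH for 15 min at room temperature in 0.1 M Tris pH 7.5 with EDTA, glutathione and BSA. Malonyl CoA and acetyl CoA (500 μM and 150 μM in the added mix) were then added for 60 min. IC50 came from time-zero-subtracted NADPH fluorescence (340/460 nm).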

T1 sequence (P49327 whole entry): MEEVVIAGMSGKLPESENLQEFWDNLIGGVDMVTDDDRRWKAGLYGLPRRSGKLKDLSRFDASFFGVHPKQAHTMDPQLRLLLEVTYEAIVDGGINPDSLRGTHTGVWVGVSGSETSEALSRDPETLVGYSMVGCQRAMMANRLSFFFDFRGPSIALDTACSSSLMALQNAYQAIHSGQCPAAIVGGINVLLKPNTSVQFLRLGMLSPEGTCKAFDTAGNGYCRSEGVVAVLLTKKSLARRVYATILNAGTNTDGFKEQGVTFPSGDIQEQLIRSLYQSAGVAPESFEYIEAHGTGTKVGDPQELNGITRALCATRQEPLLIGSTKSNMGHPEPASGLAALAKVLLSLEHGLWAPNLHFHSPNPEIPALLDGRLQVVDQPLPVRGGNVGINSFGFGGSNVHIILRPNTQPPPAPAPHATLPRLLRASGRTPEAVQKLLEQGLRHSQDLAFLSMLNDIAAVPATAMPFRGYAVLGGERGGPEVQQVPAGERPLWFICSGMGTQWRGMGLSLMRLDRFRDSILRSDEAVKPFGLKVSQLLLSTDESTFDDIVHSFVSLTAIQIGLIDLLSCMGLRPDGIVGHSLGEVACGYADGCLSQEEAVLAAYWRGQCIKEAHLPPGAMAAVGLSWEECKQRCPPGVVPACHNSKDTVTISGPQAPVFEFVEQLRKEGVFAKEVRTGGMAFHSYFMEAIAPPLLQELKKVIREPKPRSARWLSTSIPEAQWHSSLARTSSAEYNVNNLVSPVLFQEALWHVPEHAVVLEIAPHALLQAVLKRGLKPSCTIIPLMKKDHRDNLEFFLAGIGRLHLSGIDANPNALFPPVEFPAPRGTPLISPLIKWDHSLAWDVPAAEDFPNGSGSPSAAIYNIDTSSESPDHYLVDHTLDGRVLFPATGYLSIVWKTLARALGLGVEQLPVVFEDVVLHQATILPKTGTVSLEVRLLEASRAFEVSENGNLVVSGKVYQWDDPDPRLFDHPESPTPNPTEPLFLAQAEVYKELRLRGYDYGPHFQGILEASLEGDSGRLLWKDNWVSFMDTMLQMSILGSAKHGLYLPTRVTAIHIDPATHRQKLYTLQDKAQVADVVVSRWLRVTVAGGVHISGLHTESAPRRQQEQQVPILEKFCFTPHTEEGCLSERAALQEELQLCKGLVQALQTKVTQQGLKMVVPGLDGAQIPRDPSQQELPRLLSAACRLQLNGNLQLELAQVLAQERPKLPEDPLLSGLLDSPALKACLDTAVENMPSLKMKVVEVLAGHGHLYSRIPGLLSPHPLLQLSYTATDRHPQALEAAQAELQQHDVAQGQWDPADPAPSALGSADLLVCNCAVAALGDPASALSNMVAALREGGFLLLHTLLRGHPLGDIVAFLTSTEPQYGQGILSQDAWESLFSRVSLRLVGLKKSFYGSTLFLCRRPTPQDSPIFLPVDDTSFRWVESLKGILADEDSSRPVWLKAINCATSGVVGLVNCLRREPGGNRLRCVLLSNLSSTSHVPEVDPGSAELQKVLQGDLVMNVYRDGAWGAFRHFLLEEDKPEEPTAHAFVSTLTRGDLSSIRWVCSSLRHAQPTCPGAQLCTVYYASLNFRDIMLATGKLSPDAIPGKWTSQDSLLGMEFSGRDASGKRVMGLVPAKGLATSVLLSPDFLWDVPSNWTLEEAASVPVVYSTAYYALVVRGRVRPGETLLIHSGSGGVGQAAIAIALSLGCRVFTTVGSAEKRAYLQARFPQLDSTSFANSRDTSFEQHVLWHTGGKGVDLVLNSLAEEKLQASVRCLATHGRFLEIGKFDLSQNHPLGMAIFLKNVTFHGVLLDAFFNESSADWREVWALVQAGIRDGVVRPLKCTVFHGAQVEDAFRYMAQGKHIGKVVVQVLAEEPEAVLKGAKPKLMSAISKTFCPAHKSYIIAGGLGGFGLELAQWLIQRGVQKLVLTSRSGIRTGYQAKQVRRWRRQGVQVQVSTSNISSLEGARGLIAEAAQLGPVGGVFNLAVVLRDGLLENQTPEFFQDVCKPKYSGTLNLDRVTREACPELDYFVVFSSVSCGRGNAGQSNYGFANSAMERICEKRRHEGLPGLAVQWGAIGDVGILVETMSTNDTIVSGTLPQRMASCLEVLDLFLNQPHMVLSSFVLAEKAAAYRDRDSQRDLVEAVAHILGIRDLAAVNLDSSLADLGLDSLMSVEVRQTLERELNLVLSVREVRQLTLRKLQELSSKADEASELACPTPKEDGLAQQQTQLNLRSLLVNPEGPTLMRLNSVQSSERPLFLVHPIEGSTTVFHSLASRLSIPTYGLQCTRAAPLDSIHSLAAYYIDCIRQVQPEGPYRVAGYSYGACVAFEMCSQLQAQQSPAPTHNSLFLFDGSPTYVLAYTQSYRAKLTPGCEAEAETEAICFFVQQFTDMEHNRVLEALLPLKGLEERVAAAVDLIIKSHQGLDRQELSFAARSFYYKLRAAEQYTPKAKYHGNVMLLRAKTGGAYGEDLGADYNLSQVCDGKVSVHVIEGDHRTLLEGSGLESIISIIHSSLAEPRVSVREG

| inhibition at 100 µM [%] | Structure (SMILES) |
| --- | --- |
| 91.9 | Cc1ccc(C(=O)N2CCC(c3ccc(C#N)cc3)CC2)cc1NC(=O)NCCNC(=O)OC(C)(C)C [Example 102, tert-butyl N-[2-[[5-[4-(4-cyanophenyl)piperidine-1-carbonyl]-2-methyl-phenyl]carbamoylamino]ethyl]carbamate] |
| 91.8 | Cc1ccc(C(=O)N2CCC(c3ccc(C#N)cc3)CC2)cc1NC(=O)NCCN [Example 103, 3-(2-aminoethyl)-1-[5-[4-(4-cyanophenyl)piperidine-1-carbonyl]-2-methyl-phenyl]urea] |
| 74.5 | Cc1ccc(C(=O)N2CCC(c3ccc(C#N)cc3)CC2)cc1NC(=O)NCCNC(=O)C(=O)O [Example 104, 2-[[5-[4-(4-cyanophenyl)piperidine-1-carbonyl]-2-methyl-phenyl]carbamoylamino]ethylcarbamoylformic acid] |
| 79 | Cc1ccc(C(=O)N2CCC(c3ccc(C#N)cc3)CC2)cc1NC(=O)NCCNC(=O)CC(=O)O [Example 104A, 2-[2-[[5-[4-(4-cyanophenyl)piperidine-1-carbonyl]-2-methyl-phenyl]carbamoylamino]ethylcarbamoyl]acetic acid] |
| 92.7 | Cc1ccc(C(=O)N2CCC(c3ccc(C#N)cc3)CC2)cc1NC(=O)N[C@@H](C)c1ccccc1 [Example 105, 1-[5-[4-(4-cyanophenyl)piperidine-1-carbonyl]-2-methyl-phenyl]-3-[(1S)-1-phenylethyl]urea] |
| 90.3 | Cc1ccc(C(=O)N2CCC(c3ccc(C#N)cc3)CC2)cc1NC(=O)N[C@H](C)c1ccccc1 [Example 106, 1-[5-[4-(4-cyanophenyl)piperidine-1-carbonyl]-2-methyl-phenyl]-3-[(1R)-1-phenylethyl]urea] |
| 97.7 | Cc1ccc(C(=O)N2CCC(c3ccc(C#N)cc3)CC2)cc1NC(=O)NC1CCC(O)CC1 (stereo not drawn) [Example 107, 1-[5-[4-(4-cyanophenyl)piperidine-1-carbonyl]-2-methyl-phenyl]-3-(4-hydroxycyclohexyl)urea] |
| 91.8 | Cc1ccc(C(=O)N2CCC(c3ccc(C#N)cc3)CC2)cc1NC(=O)NCc1cccc(C#N)c1 [Example 108, 3-[(3-cyanophenyl)methyl]-1-[5-[4-(4-cyanophenyl)piperidine-1-carbonyl]-2-methyl-phenyl]urea] |
| 98.3 | Cc1ccc(C(=O)N2CCC(c3ccc(C#N)cc3)CC2)cc1NC(=O)NCCNS(C)(=O)=O [Example 109, 1-[5-[4-(4-cyanophenyl)piperidine-1-carbonyl]-2-methyl-phenyl]-3-(2-methanesulfonamidoethyl)urea] |
| 94.2 | CCS(=O)(=O)NCCNC(=O)Nc1cc(C(=O)N2CCC(c3ccc(C#N)cc3)CC2)ccc1C [Example 110, 3-[5-[4-(4-cyanophenyl)piperidine-1-carbonyl]-2-methyl-phenyl]-1-[2-(ethylsulfonylamino)ethyl]urea] |
| 95.6 | CCC(=O)NCCNC(=O)Nc1cc(C(=O)N2CCC(c3ccc(C#N)cc3)CC2)ccc1C [Example 111, N-[2-[[5-[4-(4-cyanophenyl)piperidine-1-carbonyl]-2-methyl-phenyl]carbamoylamino]ethyl]propanamide] |
| 94.3 | Cc1ccc(C(=O)N2CCC(c3ccc(C#N)cc3)CC2)cc1NC(=O)NCCNC(=O)C(C)C [Example 112, N-[2-[[5-[4-(4-cyanophenyl)piperidine-1-carbonyl]-2-methyl-phenyl]carbamoylamino]ethyl]-2-methyl-propanamide] |
| 92.7 | CC(=O)OCC(=O)NCCNC(=O)Nc1cc(C(=O)N2CCC(c3ccc(C#N)cc3)CC2)ccc1C [Example 113, 2-[[5-[4-(4-cyanophenyl)piperidine-1-carbonyl]-2-methyl-phenyl]carbamoylamino]ethylcarbamoylmethyl acetate] |
| 89.4 | Cc1ccc(C(=O)N2CCC(c3ccc(C#N)cc3)CC2)cc1NC(=O)NCCNC(=O)CO [Example 114, N-[2-[[5-[4-(4-cyanophenyl)piperidine-1-carbonyl]-2-methyl-phenyl]carbamoylamino]ethyl]-2-hydroxy-acetamide] |
| 92.9 | Cc1ccc(C(=O)N2CCC(c3ccc(C#N)cc3)CC2)cc1NC(=O)NCCN(C)C(=O)OC(C)(C)C [Example 115, tert-butyl N-[2-[[5-[4-(4-cyanophenyl)piperidine-1-carbonyl]-2-methyl-phenyl]carbamoylamino]ethyl]-N-methyl-carbamate] |
| 86.2 | CNCCNC(=O)Nc1cc(C(=O)N2CCC(c3ccc(C#N)cc3)CC2)ccc1C [Example 116, 1-[5-[4-(4-cyanophenyl)piperidine-1-carbonyl]-2-methyl-phenyl]-3-(2-methylaminoethyl)urea] |
| 84.5 | Cc1ccc(C(=O)N2CCC(c3ccc(C#N)cc3)CC2)cc1NC(=O)NCCNC(=O)c1cccs1 [Example 117, N-[2-[[5-[4-(4-cyanophenyl)piperidine-1-carbonyl]-2-methyl-phenyl]carbamoylamino]ethyl]thiophene-2-carboxamide] |

| inhibition at 100 µM [%] | Structure (SMILES) |
| --- | --- |
| 96.2 | Cc1ccc(C(=O)N2CCC(c3ccc(C#N)cc3)CC2)cc1NC(=O)NCCNC(=O)c1cccn1C [Example 118, N-[2-[[5-[4-(4-cyanophenyl)piperidine-1-carbonyl]-2-methyl-phenyl]carbamoylamino]ethyl]-1-methyl-pyrrole-2-carboxamide] |
| 89.2 | Cc1ccc(C(=O)N2CCC(c3ccc(C#N)cc3)CC2)cc1NC(=O)NCCNC(=O)c1cnoc1C [Example 119, N-[2-[[5-[4-(4-cyanophenyl)piperidine-1-carbonyl]-2-methyl-phenyl]carbamoylamino]ethyl]-5-methyl-1,2-oxazole-4-carboxamide] |
| 68.3 | CC(=O)N(C)CCNC(=O)Nc1cc(C(=O)N2CCC(c3ccc(C#N)cc3)CC2)ccc1C [Example 120, N-[2-[[5-[4-(4-cyanophenyl)piperidine-1-carbonyl]-2-methyl-phenyl]carbamoylamino]ethyl]-N-methyl-acetamide] |
| 86 | Cc1ccc(C(=O)N2CCC(c3ccc(C#N)cc3)CC2)cc1NC(=O)NCCN(C)S(C)(=O)=O [Example 121, 1-[5-[4-(4-cyanophenyl)piperidine-1-carbonyl]-2-methyl-phenyl]-3-[2-(methyl-methylsulfonyl-amino)ethyl]urea] |
| 96.1 | Cc1ccc(C(=O)N2CCC(c3ccc(C#N)cc3)CC2)cc1NC(=O)NCCNS(=O)(=O)C(C)C [Example 122, 1-[5-[4-(4-cyanophenyl)piperidine-1-carbonyl]-2-methyl-phenyl]-3-[2-(propan-2-ylsulfonylamino)ethyl]urea] |
| 79.7 | Cc1ccc(C(=O)N2CCC(c3ccc(C(=O)N(C)C)cc3)CC2)cc1NC(=O)NCc1ccccc1 [Example 123, 4-[1-[3-(benzylcarbamoylamino)-4-methyl-benzoyl]-4-piperidyl]-N,N-dimethyl-benzamide] |
| 78 | Cc1ccc(C(=O)N2CCC(c3ccc(C(=O)N(C)C)cc3)CC2)cc1NC(=O)NC(C)C [Example 124, N,N-dimethyl-4-[1-[4-methyl-3-(propan-2-ylcarbamoylamino)benzoyl]-4-piperidyl]benzamide] |
| 91.7 | Cc1ccc(C(=O)N2CCC(c3ccc(C#N)cc3)CC2)cc1NC(=O)NCCC(=O)O [Example 125, 3-[[5-[4-(4-cyanophenyl)piperidine-1-carbonyl]-2-methyl-phenyl]carbamoylamino]propanoic acid] |
| 87.4 | Cc1ccc(C(=O)N2CCC(c3ccc(C#N)cc3)CC2)cc1NC(=O)NCCC(N)=O [Example 126, 3-[[5-[4-(4-cyanophenyl)piperidine-1-carbonyl]-2-methyl-phenyl]carbamoylamino]propanamide] |
| 93 | Cc1ccc(C(=O)N2CCC(c3ccc(C#N)cc3)CC2)cc1NC(=O)NCCC(=O)N1CCOCC1 [Example 127, 1-[5-[4-(4-cyanophenyl)piperidine-1-carbonyl]-2-methyl-phenyl]-3-(3-morpholin-4-yl-3-oxo-propyl)urea] |
| 87.5 | COCCNC(=O)CCNC(=O)Nc1cc(C(=O)N2CCC(c3ccc(C#N)cc3)CC2)ccc1C [Example 128, 3-[[5-[4-(4-cyanophenyl)piperidine-1-carbonyl]-2-methyl-phenyl]carbamoylamino]-N-(2-methoxyethyl)propanamide] |
| 99.1 | Cc1ccc(C(=O)N2CCC(c3ccc(C#N)cc3)CC2)cc1NC(=O)NCCC(=O)NC(C)C [Example 129, 3-[[5-[4-(4-cyanophenyl)piperidine-1-carbonyl]-2-methyl-phenyl]carbamoylamino]-N-propan-2-yl-propanamide] |
| 90.5 | Cc1ccc(C(=O)N2CCC(c3ccc(C#N)cc3)CC2)cc1NC(=O)NCCC(=O)N(C)C [Example 130, 3-[[5-[4-(4-cyanophenyl)piperidine-1-carbonyl]-2-methyl-phenyl]carbamoylamino]-N,N-dimethyl-propanamide] |
| 89.8 | Cc1ccc(C(=O)N2CCC(c3ccc(C#N)cc3)CC2)cc1NC(=O)NCCCN1CCCC1=O [Example 131, 1-[5-[4-(4-cyanophenyl)piperidine-1-carbonyl]-2-methyl-phenyl]-3-[3-(2-oxopyrrolidin-1-yl)propyl]urea] |
| 89.5 | CCOC(=O)N1CCC(NC(=O)Nc2cc(C(=O)N3CCC(c4ccc(C#N)cc4)CC3)ccc2C)CC1 [Example 132, ethyl 4-[[5-[4-(4-cyanophenyl)piperidine-1-carbonyl]-2-methyl-phenyl]carbamoylamino]piperidine-1-carboxylate] |
| 81.2 | Cc1ccc(C(=O)N2CCC(c3ccc(C#N)cc3)CC2)cc1NC(=O)NC1CCCCNC1=O (stereo not drawn) [Example 133, 1-[5-[4-(4-cyanophenyl)piperidine-1-carbonyl]-2-methyl-phenyl]-3-(2-oxoazepan-3-yl)urea] |
